Results taken from ChEMBL document CHEMBL1201862, “PubChem BioAssay data set” (2004).
The source made the active and inactive calls.

Assays:
[1] = target: T1, Intestinal-type alkaline phosphatase (Homo sapiens, UniProt P09923); assay: human intestinal alkaline phosphatase activators, dose response, biochemical, luminescence, uHTS hits (AID 463120); assay type: functional
[2] = target: T1, Intestinal-type alkaline phosphatase; assay: Dose Response confirmation of uHTS hits from a small molecule inhibitors of human intestinal alkaline phosphatase via a luminescent assay. [Related pubchem assays (depositor defined):AID2544, AID2574]; assay type: functional
[3] = target: T2, Coagulation factor XII (Homo sapiens, UniProt P00748); assay: FXIIa inhibitor potency, concentration-response, biochemical (AID 716); assay type: functional
T2 sequence (P00748 whole entry): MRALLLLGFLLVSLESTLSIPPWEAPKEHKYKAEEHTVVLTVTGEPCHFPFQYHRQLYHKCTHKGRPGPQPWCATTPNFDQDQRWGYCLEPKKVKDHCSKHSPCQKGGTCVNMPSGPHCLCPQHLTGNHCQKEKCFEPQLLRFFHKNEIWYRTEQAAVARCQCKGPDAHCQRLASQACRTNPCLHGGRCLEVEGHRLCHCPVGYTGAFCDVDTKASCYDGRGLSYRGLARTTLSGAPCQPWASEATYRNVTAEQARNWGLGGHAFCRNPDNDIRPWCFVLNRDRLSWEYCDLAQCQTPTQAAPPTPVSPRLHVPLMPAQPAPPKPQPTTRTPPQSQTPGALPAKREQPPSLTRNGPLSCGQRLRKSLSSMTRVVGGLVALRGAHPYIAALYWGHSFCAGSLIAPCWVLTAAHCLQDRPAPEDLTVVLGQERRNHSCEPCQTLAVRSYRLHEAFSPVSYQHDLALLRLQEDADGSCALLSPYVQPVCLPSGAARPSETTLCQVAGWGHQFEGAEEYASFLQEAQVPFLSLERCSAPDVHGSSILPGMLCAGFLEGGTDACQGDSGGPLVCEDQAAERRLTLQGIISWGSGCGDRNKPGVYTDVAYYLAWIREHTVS

[4] = tested on: Saccharomyces cerevisiae; assay: NALP1 inhibitor project selectivity study, Caspase-1/ASC signal blockade IC50 in S. cerevisiae (AID 488863); assay type: functional, organism-based
[5] = target: NACHT, LRR and PYD domains-containing protein 1 (Homo sapiens, UniProt Q9C000); assay: NALP1 inhibitors in yeast, dose response, luminescent (AID 488860); assay type: functional
Chain of NACHT, LRR and PYD domains-containing protein 1 (Q9C000 1-1212 limits assumed): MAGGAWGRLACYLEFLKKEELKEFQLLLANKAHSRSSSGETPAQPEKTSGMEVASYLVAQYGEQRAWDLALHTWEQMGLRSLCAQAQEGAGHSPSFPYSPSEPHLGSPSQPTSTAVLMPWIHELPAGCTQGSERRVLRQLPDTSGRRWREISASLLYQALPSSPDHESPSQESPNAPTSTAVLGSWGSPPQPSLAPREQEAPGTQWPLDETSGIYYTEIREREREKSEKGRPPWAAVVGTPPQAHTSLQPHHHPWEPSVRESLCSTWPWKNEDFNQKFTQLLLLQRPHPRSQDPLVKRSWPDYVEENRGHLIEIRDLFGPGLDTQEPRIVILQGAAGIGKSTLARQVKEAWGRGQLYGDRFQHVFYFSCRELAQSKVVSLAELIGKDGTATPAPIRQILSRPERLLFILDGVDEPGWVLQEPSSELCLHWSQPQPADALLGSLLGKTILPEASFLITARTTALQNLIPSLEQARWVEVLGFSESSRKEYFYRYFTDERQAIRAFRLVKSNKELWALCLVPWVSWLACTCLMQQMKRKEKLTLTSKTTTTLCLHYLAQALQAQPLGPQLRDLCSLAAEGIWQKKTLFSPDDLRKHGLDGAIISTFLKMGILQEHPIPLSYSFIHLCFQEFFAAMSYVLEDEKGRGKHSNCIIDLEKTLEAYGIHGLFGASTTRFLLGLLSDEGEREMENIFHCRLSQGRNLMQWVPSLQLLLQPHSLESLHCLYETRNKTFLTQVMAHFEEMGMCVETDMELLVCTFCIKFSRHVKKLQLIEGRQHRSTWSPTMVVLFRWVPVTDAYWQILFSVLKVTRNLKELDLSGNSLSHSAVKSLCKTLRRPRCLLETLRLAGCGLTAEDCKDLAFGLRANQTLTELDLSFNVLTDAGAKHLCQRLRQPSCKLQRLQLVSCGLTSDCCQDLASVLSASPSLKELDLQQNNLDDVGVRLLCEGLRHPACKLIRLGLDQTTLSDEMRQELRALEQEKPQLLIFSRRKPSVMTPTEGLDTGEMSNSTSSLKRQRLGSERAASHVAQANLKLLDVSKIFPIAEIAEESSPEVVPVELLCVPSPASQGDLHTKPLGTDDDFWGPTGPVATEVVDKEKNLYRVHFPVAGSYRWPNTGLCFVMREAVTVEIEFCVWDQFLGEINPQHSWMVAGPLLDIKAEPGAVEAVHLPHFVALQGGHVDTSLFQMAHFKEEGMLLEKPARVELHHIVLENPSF
Chain of NACHT, LRR and PYD domains-containing protein 1 (Q9C000 1213-1473 limits assumed): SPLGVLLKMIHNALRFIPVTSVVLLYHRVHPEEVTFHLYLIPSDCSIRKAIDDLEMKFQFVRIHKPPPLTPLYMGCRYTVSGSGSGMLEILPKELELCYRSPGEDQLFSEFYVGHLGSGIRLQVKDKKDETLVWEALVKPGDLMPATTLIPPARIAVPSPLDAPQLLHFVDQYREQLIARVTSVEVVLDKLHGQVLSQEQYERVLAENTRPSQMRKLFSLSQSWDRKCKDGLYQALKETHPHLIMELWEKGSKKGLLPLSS

[6] = tested on: INS1; assay: beta cell apoptosis inhibitors, cytokine rescue, dose response, luminescence, retest (AID 449756); assay type: functional, cell-based; conditions: Rattus norvegicus;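 note: cell death triggered by IL-1 beta plus TNF-alpha plus IFN-gamma mixture; protective hits raise ATP signal compared with cytokine alone wells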
[7] = inhibitors of intracellular T. cruzi replication, confirmation, NIH3T3 host cells, beta-gal luminescence (AID 2044); assay type: functional, cell-based;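 note: intracellular parasites grown in NIH/3T3 mouse fibroblasts as host cells; luminescent beta-galactosidase reporter signal from transgenic T. cruzi replicating inside host cells; inhibitors lower the luminescence signal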
[8] = CEM21 lymphoblast cell cytotoxicity, dose response, cytotoxicity control for viral fusion inhibitor project, CellTiter-Glo luminescence, cherry-picked (AID 652042); assay type: functional, cell-based;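 note: potency for signal decrease meaning cytotoxicity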
[9] = inhibitors of HIV Env-driven cell fusion, dose response, cherry-pick (AID 652057); assay type: functional, cell-based
[10] = cytotoxicity toward NIH3T3 fibroblasts, dose response, counter-screen, cell-based, ATP luminescence, mouse fibroblasts (AID 2010); assay type: functional;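 note: cells exposed to compound for about 90 hours before reading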
[11] = inhibitors of clade B AD8 Env fusion, dose response, cell-based, cherry-pick (AID 652062); assay type: functional;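 note: luciferase signal from cell-cell fusion driven by HIV-1 clade B AD8 Env; potency is for inhibitors of fusion seen as a drop in luminescence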
[12] = tested on: HEK293; assay: optical interference in Abeta FP readout, dose response, artefact control for IDE activator project, biochemical, fluorescence polarization (AID 588442); assay type: functional, cell-based; conditions: Homo sapiens
[13] = ZM109 Env clade C HIV-1 fusion inhibitors, dose response, HeLa effector, CEM target cells, luciferase, cherry-pick (AID 652058); assay type: functional, cell-based
[14] = target: T3, Insulin-degrading enzyme (Homo sapiens, UniProt P14735); assay: activators of recombinant IDE enzyme, dose response, counter-screen for IDE activator project, biochemical, fluorescence polarization (AID 588681)
T3 sequence (P14735 whole entry): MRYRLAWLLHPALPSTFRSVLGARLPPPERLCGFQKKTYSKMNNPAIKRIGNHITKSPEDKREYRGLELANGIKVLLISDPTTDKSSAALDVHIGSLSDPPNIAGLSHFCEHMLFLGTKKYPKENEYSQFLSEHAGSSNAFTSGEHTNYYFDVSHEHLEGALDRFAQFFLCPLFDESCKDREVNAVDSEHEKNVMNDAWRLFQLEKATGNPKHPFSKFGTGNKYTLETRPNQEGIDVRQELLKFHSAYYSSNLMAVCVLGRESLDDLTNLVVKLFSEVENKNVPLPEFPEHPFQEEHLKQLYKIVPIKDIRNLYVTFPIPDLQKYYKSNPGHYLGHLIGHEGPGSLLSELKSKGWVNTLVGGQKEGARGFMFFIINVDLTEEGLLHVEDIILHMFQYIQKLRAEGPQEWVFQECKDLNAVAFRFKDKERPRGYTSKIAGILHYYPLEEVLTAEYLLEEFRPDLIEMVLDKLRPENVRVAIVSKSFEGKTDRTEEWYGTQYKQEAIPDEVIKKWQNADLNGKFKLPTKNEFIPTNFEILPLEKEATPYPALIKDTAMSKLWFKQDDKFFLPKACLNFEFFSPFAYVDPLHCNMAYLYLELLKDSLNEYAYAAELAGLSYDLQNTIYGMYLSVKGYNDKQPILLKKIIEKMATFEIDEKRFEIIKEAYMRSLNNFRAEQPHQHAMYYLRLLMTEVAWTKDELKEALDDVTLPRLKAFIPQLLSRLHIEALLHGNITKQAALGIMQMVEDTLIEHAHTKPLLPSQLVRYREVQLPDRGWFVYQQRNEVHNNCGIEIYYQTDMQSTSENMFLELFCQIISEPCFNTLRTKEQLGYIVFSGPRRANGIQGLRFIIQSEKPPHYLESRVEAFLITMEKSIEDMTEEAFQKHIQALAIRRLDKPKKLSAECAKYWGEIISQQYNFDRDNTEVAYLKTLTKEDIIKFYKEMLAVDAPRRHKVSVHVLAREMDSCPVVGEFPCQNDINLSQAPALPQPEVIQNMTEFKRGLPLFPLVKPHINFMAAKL

[15] = target: G-protein coupled receptor 55 (Homo sapiens, UniProt Q9Y2T6); assay: GPR55 agonists via beta-arrestin recruitment, primary screen, imaging, U2OS cells, beta-arrestin-GFP redistribution (AID 1961); assay type: functional
Chain of G-protein coupled receptor 55 (Q9Y2T6 whole entry): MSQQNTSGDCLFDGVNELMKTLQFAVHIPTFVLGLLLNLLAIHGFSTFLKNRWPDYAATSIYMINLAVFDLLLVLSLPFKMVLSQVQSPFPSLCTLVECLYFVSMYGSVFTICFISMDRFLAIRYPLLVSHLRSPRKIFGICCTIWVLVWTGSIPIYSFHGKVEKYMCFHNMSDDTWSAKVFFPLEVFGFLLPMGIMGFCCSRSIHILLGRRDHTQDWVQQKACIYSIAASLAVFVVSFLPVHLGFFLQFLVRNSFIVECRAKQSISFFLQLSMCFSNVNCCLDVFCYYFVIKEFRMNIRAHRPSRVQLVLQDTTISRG

[16] = target: T3, Insulin-degrading enzyme; assay: activators of endogenous IDE in HEK cells, dose response, cell-based, fluorescence polarization (AID 588439); assay type: functional
[17] = target: Neurotensin receptor type 1 (Homo sapiens, UniProt P30989); assay type: functional;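 note: Image-based confirmatory dose-response assay measuring agonist activity at NTR1; NTR1-expressing U2OS osteosarcoma cells imaged for beta-arrestin GFP spot formation; agonist potency where compounds increase beta-arrestin recruitment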
Chain of Neurotensin receptor type 1 (P30989 whole entry, the tested form may be a part): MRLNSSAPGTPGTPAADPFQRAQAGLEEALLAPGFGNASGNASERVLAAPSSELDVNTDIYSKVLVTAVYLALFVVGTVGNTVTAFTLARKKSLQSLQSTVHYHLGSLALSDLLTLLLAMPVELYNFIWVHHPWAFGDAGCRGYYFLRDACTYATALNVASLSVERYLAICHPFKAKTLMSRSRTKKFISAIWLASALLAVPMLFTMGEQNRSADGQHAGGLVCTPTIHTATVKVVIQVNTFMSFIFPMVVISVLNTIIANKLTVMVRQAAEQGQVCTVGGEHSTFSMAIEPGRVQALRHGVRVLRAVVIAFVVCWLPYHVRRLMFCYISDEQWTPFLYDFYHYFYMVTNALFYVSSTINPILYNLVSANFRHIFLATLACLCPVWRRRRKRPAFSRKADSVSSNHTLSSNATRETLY

[18] = off-target signal loss in HeLa-CEM21 co-culture – HeLa F-luc CTL cells, cherry-picked, counter-screen for HIV-1 Env fusion inhibitor project, dose response (AID 652040); assay type: functional, cell-based;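 note: potency for signal decrease marking cytotoxic or nonspecific inhibition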
[19] = tested on: HEK293; assay: HEK cell cytotoxicity by LDH release, dose response, cytotoxicity control for IDE activator project, fluorescence, HEK cells (AID 588440); assay type: functional, cell-based; conditions: Homo sapiens;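 note: cytotoxicity by LDH release measuring loss of membrane integrity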
[20] = tested on: Trypanosoma cruzi; assay: growth inhibition of intracellular Trypanosoma cruzi, dose response, cell-based, plate reader, dry powder, set 3 (AID 493197); assay type: functional
[21] = cytotoxicity in NIH/3T3 mouse fibroblasts, dose response, cytotoxicity control, cell-based, mouse embryonic fibroblasts, dry powder, set 2 (AID 493247); assay type: functional; conditions: Fibroblast

T1 sequence (P09923 whole entry): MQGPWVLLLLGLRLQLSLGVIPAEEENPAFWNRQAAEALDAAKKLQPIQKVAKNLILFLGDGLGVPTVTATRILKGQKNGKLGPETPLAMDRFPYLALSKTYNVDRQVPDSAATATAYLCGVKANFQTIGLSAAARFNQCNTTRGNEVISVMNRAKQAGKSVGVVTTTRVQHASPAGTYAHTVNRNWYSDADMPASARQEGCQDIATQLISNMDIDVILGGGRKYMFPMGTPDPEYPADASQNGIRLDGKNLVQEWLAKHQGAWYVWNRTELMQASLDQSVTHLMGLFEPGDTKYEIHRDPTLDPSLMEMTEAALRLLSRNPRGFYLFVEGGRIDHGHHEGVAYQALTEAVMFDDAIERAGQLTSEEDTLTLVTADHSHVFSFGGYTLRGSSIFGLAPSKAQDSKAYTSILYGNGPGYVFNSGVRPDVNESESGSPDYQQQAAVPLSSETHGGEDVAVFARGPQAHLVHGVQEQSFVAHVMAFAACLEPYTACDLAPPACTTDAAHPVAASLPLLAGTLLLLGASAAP

Question: Which EC50 [1] does the source give for `CCn1cc(CN2CCN(C)C(CCO)C2)c2ccccc21` (stereo unspecified) here?
Answer: > 100 µM (inactive)

Question: And the IC50 [2]?
Answer: > 100 µM (inactive)

Question: Which IC50 [3] does the source give for `COc1ccc(NC(=O)CSc2nnc(CNC(=O)COc3ccc(Cl)cc3)o2)c(OC)c1` here?
Answer: > 50 µM (inactive)

Question: Which IC50 [4] does the source give for `O=C(NCCCc1ccccc1)c1ccccc1O` here?
Answer: 11.5 µM (active)

Question: And the IC50 [5]?
Answer: 13.1 µM (active)

Question: Which AC50 [6] does the source give for `CC1CCC(C(C)C)C(OC(=O)Cn2c(COc3ccccc3)[n+](C)c3ccccc32)C1` (stereo unspecified) here?
Answer: 6.26 µM (active)

Question: And the EC50 [7]?
Answer: 0.588 µM (active)

Question: And the AC50 [8]?
Answer: 6.94 µM (active)

Question: And the AC50 [9]?
Answer: 3.26 µM (active)

Question: What about the EC50 [10] of the same molecule?
Answer: > 60 µM (not active)

Question: What about the AC50 [11] of the same molecule?
Answer: 8.6 µM (active)

Question: What about the EC50 [12] of the same molecule?
Answer: > 54.7 µM (inactive)

Question: And the AC50 [13]?
Answer: 6.35 µM (active)

Question: And the EC50 [14]?
Answer: > 54.7 µM (inactive)

Question: And the EC50 [15]?
Answer: > 32 µM (inactive)

Question: What about the EC50 [16] of the same molecule?
Answer: > 54.7 µM (inactive)

Question: And the EC50 [17]?
Answer: 14 µM (active)

Question: What about the AC50 [18] of the same molecule?
Answer: 6.69 µM (active)

Question: And the IC50 [19]?
Answer: 17.4 µM (inactive)

Question: Which AC50 [20] does the source give for `COc1ccc(CCN(C)C(=O)C2CCCN(Cc3ccc(F)cc3)C2)cc1OC` (stereo unspecified) here?
Answer: 4.33 µM (active)

Question: And the AC50 [21]?
Answer: 64.7 µM (active)
